# According to patent US20110150795A1, “COSMETIC COMPOSITIONS COMPRISING EXOPOLYSACCHARIDES DERIVED FROM MICROBIAL MATS, AND USE THEREOF” (Innovactiv Inc., priority 2008, published 2011):
# Marks after values point to notes of the source that are not given here.
# Legend:
# [1] = system: intracellular lipid peroxides of irradiated keratinocytes; assay: Lipid peroxides in UV-irradiated keratinocytes (C11-Fluor probe, flow cytometry); format: cell-based, human; details: 50 μM; UVB 210 mJ/cm^2
# Description: This study was performed to evaluate the effect of EPSs of the invention on the relative quantification of the amount of lipid peroxides (LP) (degradation of skin lipids) in human cells exposed or not to UVA+UVB irradiation. The evaluation was obtained by using a specific fluorescent probe and fluorescence flow cytometry analysis. This method offers a great sensitivity because the fluorescence of each cell is measured and numerous cells are evaluated (10000 cells per experimental condition).
# Keratinocytes were pre-cultivated in complete SFM medium up to 100% of confluence. The culture medium was then replaced with assay medium containing or not the tested EPSS or the reference and the cells were incubated at 37° C. and 5% CO2 for 24 h. After incubation, a specific probe, fluorescent analogue of lipids (C11-Fluor) and the tested EPS or the references were incorporated and the cells were incubated at 37° C. and 5% CO2 for 45 minutes. The probe was then eliminated by rinsing with culture medium. The washing medium was replaced with culture medium containing the tested EPSs or the references. Untreated controls were carried out in parallel. The cells were irradiated at 210 mJ/cm^2 UVB. […] The fluorescence parameters were measured by flow cytometry with a FACSArray™ cytometer driven by the FACSArray™ system software (Becton-Dickinson) on 10 000 individual cells (no cell population selection). […]
# [2] = system: kallikrein 6 (KLK6, neurosin) mRNA; assay: RT-QPCR gene expression in human keratinocytes: KLK6; format: cell-based; details: Table VIII (first step), 24 h
# Description: (§1) This assay was performed in order to measure the effects of the EPSs on the induction of mRNA coding for differentiation proteins (filaggrin, loricrin, involucrin) and for stratum corneum tryptic enzyme involved in desquamation (kallikrein 5, 6 and 7). The relative expression of the selected markers was assayed using the “real time quantitative polymerase chain reaction” technology (RT-QPCR).
# (§2) Keratinocytes were pre-cultivated in culture medium. At confluence, the culture medium was changed into assay medium (SFM without EGF and pituitary extract) containing or not (control) the test compound and the cells were incubated for 24 h at 37° C. and 5% CO2. At the end of the experiment, the cells were washed in PBS buffer and immediately frozen at −80° C. with 300 μl per well of Tri-reagent.
# (§3) Primers couples allowing the amplification of a specific Polymerase Chain Reactions (PCR) product from each selected marker were used: Liver glyceraldehyde 3-phosphate dehydrogenase (G3PDH) was used as a reference marker in this experiment. The total RNA extraction was performed by Tri-Reagent™ according to the protocol. […]
# (§4) Initially, the modulation of gene expression was evaluated on six EPSs at the first concentration (Table VIII). As a second step, it was evaluated on four EPSs at three concentrations (Table IX).
# involucrin (INV) mRNA = assay: RT-QPCR gene expression in human keratinocytes: involucrin; format: cell-based; details: Table VIII (first step), 24 h
# Description: as §1, §2, §3, §4
# [3] = system: kallikrein 7 (KLK7, stratum corneum chymotrypsic enzyme) mRNA; assay: RT-QPCR gene expression in human keratinocytes: KLK7; format: cell-based; details: Table VIII (first step), 24 h
# Description: as §1, §2, §3, §4
# human keratinocytes = assay: Overall desquamation/differentiation gene expression profile in human keratinocytes; format: cell-based; details: 24 h
# Description: as §1, §2, §3, §4
# filaggrin (FLG) mRNA = assay: RT-QPCR gene expression in human keratinocytes: filaggrin; format: cell-based; details: Table VIII (first step), 24 h
# Description: as §1, §2, §3, §4
# kallikrein 5 (KLK5) mRNA = assay: RT-QPCR gene expression in human keratinocytes: KLK5; format: cell-based; details: Table VIII (first step), 24 h
# Description: as §1, §2, §3, §4
# loricrin (LOR) mRNA = assay: RT-QPCR gene expression in human keratinocytes: loricrin; format: cell-based; details: Table VIII (first step), 24 h
# Description: as §1, §2, §3, §4
# [4] = system: SkinEthic reconstructed human epidermis; assay: Epidermal lipid synthesis (14C-acetate incorporation, TLC) in reconstructed epidermis; format: cell-based; details: 10^−6M in culture medium (systemic), 72 h
# Description: This study was performed to evaluate the effect of EPSs of the invention on lipid synthesis. Phospholipids (cellular membranes) and neutral lipids (including epidermis specific lipids) were measured separately using thin layer chromatography. SkinEthic™ reconstructed human epidermis was used for model, its composition being close to normal human epidermis.
# The epidermal tissues were placed in 24-well plates and cultivated for 12 h in SkinEthic™ medium. The medium was then replaced by fresh medium and the tested EPSS were applied on the surface of epidermis (topical treatment), at the indicated concentrations. Three control epidermises were untreated and three reference epidermises were treated with the retinoic acid, a known stimulant of total skin lipids, in the culture medium (systemic treatment). All treatments were performed in triplicate and cultivated for 72 hours in total. After 24 h treatment, the culture medium was replaced by labelling medium (0.225 μCi/wells of [^14C] acetate) and the epidermises were treated. The labelling was carried out during a 48-hour incubation period. The Radioactive marker used was [2-14C]-Acetic acid sodium salt, Amersham CFA14 (2.04 Gbq/mmol, 55 mCi/mmol). The epidermises were washed in PBS solution and were dissociated. Then, cells were lysed by treatment with perchloric acid at 0.5 M on ice. Lipids were extracted by methanol/chloroform (2:1) and phase separation was performed by addition of PBS and chloroform after neutralisation in accordance with the procedure described by Bligh and Dyer. The radioactivity was quantified by incorporation into organic phase (lipids) with liquid scintillation (LKB 1210 Rackbeta) after chloroform evaporation. The organic phases were dried under nitrogen and thin layer chromatography (TLC; plates Merck K60) was performed by using two solvent systems: chloroform/methanol/water for Phospholipids (50:18:2.6) or hexane/ether/acetic acid for Neutral lipids (15:5.6:0.19). The various metabolites were quantified by performing a direct count of the radioactivity of the various spots on TLC plates with Phosphorlmager Cyclone™ and Multigauge software (Fujifilm).
# human skin explants = assay: Antipollution activity on human skin explants (MDA assay, morphology); details: for MDA concentration: 2 mg per explant topical
# Description: This study was performed to evaluate the antipollution activity of a cosmetic product though its effect against free radicals on normal skin. A mixture of pollutants and heavy metals was used to mimic the harmful effects of an environmental pollution (like fumes, smoke . . . ). Explants were used as a skin model in this experiment as a good model of human skin.
# Pieces of human skin (27 explants) were prepared from an abdominal biopsy removed from a healthy subject during cosmetic reductive surgery. They were placed in BEM medium at 37° C. and 5% CO2. The tested EPSS were applied on the surface of epidermis (topical treatment) at the indicated concentrations (2 mg per explant). They were applied the first day (Day 0) and after one, two, three and four days (Day 1, Day 2, Day 3 and Day 4).
# At Day 4, 30 μL of a mixture of heavy metals (Table XII) and hydrocarbon was applied on a paper disk and immediately placed on identified explants.
# At Day 0 and Day 5, 3 explants of each batch were removed and fixed in Bouin's liquid for morphological observation. After 48 hours in Bouin medium, explants were dehydrated, embedded in paraffin and stained in Masson's Trichrome. The MDA assay (Malondialdehyde, a stable product from the radical alteration) was performed in culture medium of Day 3, 24 h after irradiation to quantify the efficiency of products against free radicals generated by pollutants.
# [5] = system: senescent human fibroblasts; assay: Hyaluronic acid synthesis by senescent human fibroblasts (ELISA), with or without TGFβ; format: cell-based; details: for HA / HA % of control: 72 h
# Text: This study has been performed in order to evaluate the effects of the EPSs on the synthesis of hyaluronic acid by senescent human fibroblasts. […] These senescent cells are obtained by subcultures of normal dermal fibroblasts and a senescent phenotype is obtained from the 12th passage.
# This effect was attributed to an increase in sensitivity of cells to EGF. Based on this observation for EGF, a similar situation could exist for other factors like TGFβ. TGFβ has the ability to trigger HA synthesis. It has been observed however, that older cells become desensitized to TGFβ. Two types of effects of EPSS have thus been tested: their direct effect on the production of HA and their possibility to restore sensitivity of the cells to TGFβ.
# Senescent fibroblasts were pre-cultivated for 24 hours until confluence. Then, the culture medium was removed and replaced by assay medium containing or not (control), the tested EPSS alone, TGFβ alone or the mix of tested EPSS with TGFβ. The cells were then cultivated for 72 hours. At the end of the incubation, the hyaluronic acid concentration was evaluated in the supernatant by a standard ELISA assay according to the manufacturer's procedures (R&D Systems DY3614) and cell viability was evaluated by using a standard MTT incorporation assay.
# [6] = skin explants without contaminant
# [7] = culture with TGFβ section, TGFβ alone 1 · 10^−5 g/L (reference of this section)
# [8] = culture without TGFβ section, TGFβ alone 1 · 10^−5 g/L
compound,measurement,setting,value
COc1ccc(O)c(C(C)(C)C)c1 [BHA],% protection (intracellular lipid peroxides),[1],76%
[Ca+2].[Cl-].[Cl-] [CaCl2],KLK6 expression (control = 100),[2]; 1.5 mM,110
same,INV expression (control = 100),involucrin (INV) mRNA; 1.5 mM,282
same,KLK7 expression (control = 100),[3]; 1.5 mM,291
same,desquamation/differentiation gene expression profile,human keratinocytes,pro differentiation profile
same,FLG expression (control = 100),filaggrin (FLG) mRNA; 1.5 mM,125
same,KLK5 expression (control = 100),kallikrein 5 (KLK5) mRNA; 1.5 mM,207
same,LOR expression (control = 100),loricrin (LOR) mRNA; 1.5 mM,98
CC1=C(/C=C/C(C)=C/C=C/C(C)=C/C(=O)O)C(C)(C)CCC1 [Retinoic acid],KLK6 expression (control = 100),[2]; 10^−7M,315
same,Ceramides and cerebrosides (Cera/Cere) synthesis,[4],85* % Control
same,Cholesterol (C) synthesis,[4],77* % Control
same,Esterified Fatty Acids (EFA) synthesis,[4],133 % Control
same,Free Fatty Acids (FFA) synthesis,[4],76 % Control
same,Phospholipids (PL) synthesis,[4],105 % Control
same,Sphingomyelin (SM) synthesis,[4],106 % Control
same,Sulfate Cholesterol (CSO4) synthesis,[4],92 % Control
same,Total Lipids (TL) synthesis,[4],175** % Control
same,Total Lipids (TL) synthesis,[4]; listed as retinoic acid,175 % Control
same,INV expression (control = 100),involucrin (INV) mRNA; 10^−7M,79
same,KLK7 expression (control = 100),[3]; 10^−7M,268
same,FLG expression (control = 100),filaggrin (FLG) mRNA; 10^−7M,35
same,KLK5 expression (control = 100),kallikrein 5 (KLK5) mRNA; 10^−7M,146
same,LOR expression (control = 100),loricrin (LOR) mRNA; 10^−7M,29
Cc1c(C)c2c(c(C)c1O)CC[C@@](C)(CCC[C@H](C)CCC[C@H](C)CCCC(C)C)O2 [α tocopherol],% pollution,human skin explants; skin explants + contaminant,24.13%
same,% protection,human skin explants; skin explants + contaminant,75.9%
same,antipollution activity (conclusion of MDA assay),human skin explants; skin explants + contaminant,reduced pollutants activity
same,MDA concentration,human skin explants; skin explants + contaminant (heavy metals and hydrocarbon),544.93 pmol/mL
same,% pollution,human skin explants; [6],0.00%
same,MDA concentration,human skin explants; [6],392.28 pmol/mL
TGFβ,increase of hyaluronic acid synthesis,[5]; TGFβ at 10 ng/ml,4 folds
same,HA,[5]; [7],16.05 µg/mL
same,HA % of control,[5]; [7],100%
same,HA,[5]; [8],11.73 µg/mL
same,HA % of control,[5]; [8],473** %
